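These data come from cells grown in 96-well plates and exposed to compound for 48 hours at five concentrations. Here, GI50 denotes the concentration required for 50% inhibition of growth. At the TGI there is no net growth.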
Legend:
Assay in all cases: NCI anticancer screen, dose series, 48 h
[1] = system: OVCAR-8 ovarian
[2] = system: BT-549 breast
[3] = system: HCT-116 colon
[4] = system: SF-539 CNS
[5] = system: OVCAR-5 ovarian
[6] = system: HCT-15 colon
[7] = system: ACHN renal
[8] = system: UO-31 renal
[9] = system: RXF 393 renal
[10] = system: SF-295 CNS
[11] = system: LOX IMVI melanoma
[12] = system: NCI-H23 lung
[13] = system: SK-MEL-2 melanoma
[14] = system: UACC-257 melanoma
[15] = system: HS 578T breast
[16] = system: HOP-92 NSCLC
[17] = system: SR leukemia
[18] = system: T-47D breast
[19] = system: HOP-62 NSCLC
[20] = system: NCI-H522 lung
[21] = system: SK-MEL-5 melanoma
[22] = system: RPMI-8226 leukemia
[23] = system: EKVX NSCLC
[24] = system: IGROV1 ovarian
[25] = system: CCRF-CEM leukemia
[26] = system: NCI-H226 lung
[27] = system: MOLT-4 leukemia
[28] = system: SF-268 CNS
[29] = system: A549 NSCLC
[30] = system: SW-620 colon
[31] = system: NCI/ADR-RES ovarian
[32] = system: A498 renal
[33] = system: U251 CNS
[34] = system: K-562 leukemia
[35] = system: MCF7 breast
[36] = system: UACC-62 melanoma
[37] = system: CAKI-1 renal
[38] = system: NCI-H460 lung
[39] = system: KM12 colon
[40] = system: MALME-3M melanoma
[41] = system: SNB-19 CNS
[42] = system: OVCAR-4 ovarian
[43] = system: OVCAR-3 ovarian
[44] = system: TK-10 renal
[45] = system: SN12C renal
[46] = system: SK-MEL-28 melanoma
[47] = system: SNB-75 CNS
[48] = system: DU-145 prostate
[49] = system: SK-OV-3 ovarian
[50] = system: MDA-MB-435
[51] = system: HCC-2998 colon
[52] = system: COLO 205 colon
[53] = system: MDA-MB-231 breast
[54] = system: HT29 colon
[55] = system: 786-0 renal

## O=C(N/N=C/c1ccccc1O)c1ccccc1O
[1]
  GI50: 618 nM
  TGI: > 100000 nM
[2]
  GI50: 4440 nM
  TGI: > 100000 nM
[3]
  GI50: 325 nM
  TGI: > 100000 nM
[4]
  GI50: 1740 nM
  TGI: > 100000 nM
[5]
  GI50: 4960 nM
  TGI: > 100000 nM
[6]
  GI50: 423 nM
  TGI: > 100000 nM
[7]
  GI50: 680 nM
  TGI: > 100000 nM
[8]
  GI50: 3120 nM
  TGI: > 100000 nM
[9]
  GI50: 1490 nM
  TGI: > 100000 nM
[10]
  GI50: 1270 nM
  TGI: > 100000 nM
[11]
  GI50: 286 nM
  TGI: > 100000 nM
[12]
  GI50: 2900 nM
  TGI: > 100000 nM
[13]
  GI50: 1030 nM
  TGI: > 100000 nM
[14]
  GI50: 434 nM
  TGI: > 100000 nM
[15]
  GI50: 8510 nM
  TGI: > 100000 nM
[16]
  GI50: 804 nM
  TGI: > 100000 nM
[17]
  GI50: 1740 nM
  TGI: > 100000 nM
[18]
  GI50: 418 nM
  TGI: > 100000 nM
[19]
  GI50: 568 nM
  TGI: > 100000 nM
[20]
  GI50: 303 nM
  TGI: 17900 nM
[21]
  GI50: 1080 nM
  TGI: 12800 nM
[22]
  GI50: 1700 nM
  TGI: > 100000 nM
[23]
  GI50: 2230 nM
  TGI: > 100000 nM
[24]
  GI50: 794 nM
  TGI: > 100000 nM
[25]
  GI50: 499 nM
  TGI: > 100000 nM
[26]
  GI50: 2430 nM
  TGI: > 100000 nM
[27]
  GI50: 637 nM
  TGI: > 100000 nM
[28]
  GI50: 802 nM
  TGI: > 100000 nM
[29]
  GI50: 2080 nM
  TGI: > 100000 nM
[30]
  GI50: 877 nM
  TGI: > 100000 nM
[31]
  GI50: 451 nM
  TGI: > 100000 nM
[32]
  GI50: 2570 nM
  TGI: > 100000 nM
[33]
  GI50: 926 nM
  TGI: > 100000 nM
[34]
  GI50: 2620 nM
  TGI: > 100000 nM
[35]
  GI50: 337 nM
  TGI: > 100000 nM
[36]
  GI50: 733 nM
  TGI: > 100000 nM
[37]
  GI50: 488 nM
  TGI: > 100000 nM
[38]
  GI50: 514 nM
  TGI: > 100000 nM
[39]
  GI50: 766 nM
  TGI: > 100000 nM
[40]
  GI50: 12600 nM
  TGI: > 100000 nM
[41]
  GI50: 2690 nM
  TGI: > 100000 nM
[42]
  GI50: 297 nM
  TGI: > 100000 nM
[43]
  GI50: 437 nM
  TGI: > 100000 nM
[44]
  GI50: 518 nM
  TGI: > 100000 nM
[45]
  GI50: 1440 nM
  TGI: > 100000 nM
[46]
  GI50: 1920 nM
  TGI: > 100000 nM
[47]
  GI50: 390 nM
  TGI: > 100000 nM
[48]
  GI50: 847 nM
  TGI: > 100000 nM
[49]
  GI50: 1750 nM
  TGI: > 100000 nM
[50]
  GI50: 3880 nM
  TGI: > 100000 nM
[51]
  GI50: 1910 nM
  TGI: > 100000 nM
[52]
  GI50: 3530 nM
  TGI: > 100000 nM
[53]
  GI50: 676 nM
  TGI: > 100000 nM
[54]
  GI50: 11600 nM
  TGI: > 100000 nM
[55]
  GI50: 1140 nM
  TGI: > 100000 nM

— PubChem BioAssay (NCI)
